Assay results reported in ChEMBL document CHEMBL1140438, “Ligand recognition by RAR and RXR receptors: binding and selectivity” (J Med Chem, 2005).

Experiments:
[1] = target: T1, Retinoic acid receptor gamma (Homo sapiens, UniProt P13631); assay: Dissociation constant for Retinoic acid receptor gamma; Not an active agonist; assay type: functional
T1 sequence (P13631 whole entry): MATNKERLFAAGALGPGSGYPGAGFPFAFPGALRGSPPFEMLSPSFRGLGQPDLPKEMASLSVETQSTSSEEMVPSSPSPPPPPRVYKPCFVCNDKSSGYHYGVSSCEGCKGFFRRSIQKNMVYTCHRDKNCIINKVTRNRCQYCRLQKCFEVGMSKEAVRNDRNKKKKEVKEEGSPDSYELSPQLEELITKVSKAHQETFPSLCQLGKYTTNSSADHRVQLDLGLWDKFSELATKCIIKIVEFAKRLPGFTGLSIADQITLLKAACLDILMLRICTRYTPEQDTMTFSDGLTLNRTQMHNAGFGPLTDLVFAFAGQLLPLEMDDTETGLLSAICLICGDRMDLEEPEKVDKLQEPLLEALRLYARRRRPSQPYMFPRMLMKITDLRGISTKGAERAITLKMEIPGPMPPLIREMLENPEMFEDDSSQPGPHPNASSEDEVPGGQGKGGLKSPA

[2] = target: T2, Retinoic acid receptor RXR-alpha (Homo sapiens, UniProt P19793); assay: Dissociation constant for Retinoid X receptor alpha
T2 sequence (P19793 whole entry): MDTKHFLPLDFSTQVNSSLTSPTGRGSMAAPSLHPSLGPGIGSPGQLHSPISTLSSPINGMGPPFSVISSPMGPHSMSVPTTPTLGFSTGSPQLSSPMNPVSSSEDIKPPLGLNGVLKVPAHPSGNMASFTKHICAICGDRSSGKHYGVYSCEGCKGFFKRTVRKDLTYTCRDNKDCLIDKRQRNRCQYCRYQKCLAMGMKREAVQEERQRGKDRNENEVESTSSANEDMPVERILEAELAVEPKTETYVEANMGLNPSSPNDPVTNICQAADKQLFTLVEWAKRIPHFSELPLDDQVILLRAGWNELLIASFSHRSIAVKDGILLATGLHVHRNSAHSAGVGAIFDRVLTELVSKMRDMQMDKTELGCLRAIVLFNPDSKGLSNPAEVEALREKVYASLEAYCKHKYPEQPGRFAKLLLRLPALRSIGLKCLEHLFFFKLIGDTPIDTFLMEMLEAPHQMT

[3] = target: T1, Retinoic acid receptor gamma

| SMILES | Kd [1] | Kd [2] [nM] | Kd [3] [nM] |
| --- | --- | --- | --- |
| Cc1cc2c(cc1-c1cc(/C=C3\SC(=O)NC3=O)ccc1OC(F)(F)F)C(C(C)C)=CCC2(C)C | Not Active |  |  |
| C/C(=C\c1ccc(C(=O)O)cc1)c1cc2c(cc1C)C(C)(C)CCC2(C)C |  | 32 | 645 |
